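Five concentrations, 48 hours, 96-well plates. GI50: concentration for 50% inhibition of growth.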 The source made the active and inactive calls. Rule as the data show it: active = GI50 up to about 1.1 µM and inactive = higher.
Key:
Assay in all cases: NCI tumour cell line growth inhibition, 48 h
UO-31 = test system: UO-31
HOP-18 = test system: HOP-18
786-0 = test system: 786-0
SNB-19 = test system: SNB-19
COLO 205 = test system: COLO 205
SF-295 = test system: SF-295
OVCAR-8 = test system: OVCAR-8
U-251 = test system: U-251
HCT-116 = test system: HCT-116
LXFL 529 = test system: LXFL 529
HCT-15 = test system: HCT-15
OVCAR-4 = test system: OVCAR-4
NCI-H226 = test system: NCI-H226
RPMI-8226 = test system: RPMI-8226
HOP-92 = test system: HOP-92
NCI-H23 = test system: NCI-H23
CAKI-1 = test system: CAKI-1
LOX IMVI = test system: LOX IMVI
SF-268 = test system: SF-268
SK-OV-3 = test system: SK-OV-3
DMS-114 = test system: DMS-114
EKVX = test system: EKVX
SF-539 = test system: SF-539
KM12 = test system: KM12
HT-29 = test system: HT-29
PC-3 = test system: PC-3
A549 = test system: A549
HOP-62 = test system: HOP-62
SK-MEL-28 = test system: SK-MEL-28
SW-620 = test system: SW-620
DMS-273 = test system: DMS-273
SK-MEL-2 = test system: SK-MEL-2
IGROV-1 = test system: IGROV-1
SN12C = test system: SN12C
CCRF-CEM = test system: CCRF-CEM
A498 = test system: A498
KM-20L2 = test system: KM-20L2
MDA-MB-231 = test system: MDA-MB-231
ACHN = test system: ACHN
SK-MEL-5 = test system: SK-MEL-5
K562 = test system: K562
SNB-78 = test system: SNB-78
OVCAR-3 = test system: OVCAR-3
MCF7 = test system: MCF7
MDA-N = test system: MDA-N
RXF 393 = test system: RXF 393
UACC-62 = test system: UACC-62
SR = test system: SR
NCI-H460 = test system: NCI-H460
NCI/ADR-RES = test system: NCI/ADR-RES
TK-10 = test system: TK-10
M19-MEL = test system: M19-MEL
Hs-578T = test system: Hs-578T
T47D = test system: T47D
MOLT-4 = test system: MOLT-4
M14 = test system: M14
DU-145 = test system: DU-145
OVCAR-5 = test system: OVCAR-5
HCC 2998 = test system: HCC 2998
HL-60 = test system: HL-60
MDA-MB-435 = test system: MDA-MB-435
SNB-75 = test system: SNB-75
UACC-257 = test system: UACC-257

For `O=c1c2cc(O)ccc2n2nnc3ccc(NCCNCCO)c1c32`, the GI50 (UO-31) was 16.3 µM (inactive), the GI50 (HOP-18) was 24.3 µM (inactive) and the GI50 (786-0) was 3.55 µM (inactive). The GI50 (SNB-19) was 4.85 µM (inactive), the GI50 (COLO 205) was 4.26 µM (inactive) and the GI50 (SF-295) was 11.7 µM (inactive). The GI50 (OVCAR-8) was 1.86 µM (inactive), the GI50 (U-251) was 1.82 µM (inactive) and the GI50 (HCT-116) was 2.65 µM (inactive). The GI50 (LXFL 529) was 1.86 µM (inactive), the GI50 (HCT-15) was 49.1 µM and the GI50 (OVCAR-4) was 3.84 µM (inactive). For the same compound, the GI50 (NCI-H226) was 2.31 µM (inactive), the GI50 (RPMI-8226) was 14.1 µM (inactive) and the GI50 (HOP-92) was 2.06 µM (inactive). For the same compound, the GI50 (NCI-H23) was 5.92 µM (inactive), the GI50 (CAKI-1) was 4.2 µM (inactive) and the GI50 (LOX IMVI) was 1.71 µM (inactive). For the same compound, the GI50 (SF-268) was 1.59 µM (inactive), the GI50 (SK-OV-3) was 5.4 µM (inactive) and the GI50 (DMS-114) was 1.71 µM (inactive). The GI50 (EKVX) was 14.5 µM (inactive), the GI50 (SF-539) was 3.85 µM (inactive) and the GI50 (KM12) was 11.2 µM (inactive). The GI50 (HT-29) was 6.62 µM (inactive).
In the case of `Cc1cc(O)nc(NN2C(Cl)C(=O)C2c2ccccc2O)n1` (stereo not drawn), the GI50 (UO-31) is reported as 2.06 µM (inactive), the GI50 (PC-3) is reported as 1.32 µM (inactive) and the GI50 (HOP-18) is reported as 1.6 µM (inactive). For the same compound, the GI50 (A549) was 4.26 µM (inactive), the GI50 (786-0) was 2.53 µM (inactive) and the GI50 (SNB-19) was 5.85 µM (inactive). The GI50 (COLO 205) was 12.1 µM (inactive), the GI50 (HOP-62) was 1.76 µM (inactive) and the GI50 (SK-MEL-28) was 4.94 µM (inactive). For the same compound, the GI50 (SW-620) was 3.27 µM (inactive), the GI50 (DMS-273) was 1.96 µM (inactive) and the GI50 (SK-MEL-2) was 1.61 µM (inactive). The GI50 (IGROV-1) was 3.75 µM (inactive), the GI50 (SN12C) was 2.7 µM (inactive) and the GI50 (CCRF-CEM) was 547 nM (active). For the same compound, the GI50 (SF-295) was 2.76 µM (inactive), the GI50 (A498) was 12.2 µM (inactive) and the GI50 (KM-20L2) was 10.7 µM (inactive). The GI50 (MDA-MB-231) was 4.39 µM (inactive), the GI50 (ACHN) was 1.44 µM (inactive) and the GI50 (SK-MEL-5) was 2.66 µM (inactive). For the same compound, the GI50 (K562) was 1.08 µM (active), the GI50 (OVCAR-8) was 2.66 µM (inactive) and the GI50 (U-251) was 2.76 µM (inactive). The GI50 (HCT-116) was 2.14 µM (inactive), the GI50 (LXFL 529) was 2.62 µM (inactive) and the GI50 (SNB-78) was 24.3 µM (inactive). For the same compound, the GI50 (HCT-15) was 0.65 µM, the GI50 (OVCAR-3) was 330 nM (active) and the GI50 (MCF7) was 2.48 µM (inactive). The GI50 (MDA-N) was 4.36 µM (inactive), the GI50 (RXF 393) was 3.03 µM (inactive) and the GI50 (OVCAR-4) was 8.49 µM (inactive). For the same compound, the GI50 (NCI-H226) was 2.39 µM (inactive), the GI50 (UACC-62) was 1.6 µM (inactive) and the GI50 (SR) was 796 nM (active). The GI50 (NCI-H460) was 726 nM (active), the GI50 (NCI/ADR-RES) was 1.54 µM (inactive) and the GI50 (RPMI-8226) was 3.06 µM (inactive). For the same compound, the GI50 (TK-10) was 19.4 µM (inactive), the GI50 (HOP-92) was 5.26 µM (inactive) and the GI50 (M19-MEL) was 3.84 µM (inactive). For the same compound, the GI50 (NCI-H23) was 5.45 µM (inactive), the GI50 (CAKI-1) was 1.64 µM (inactive) and the GI50 (Hs-578T) was 26.8 µM (inactive). For the same compound, the GI50 (LOX IMVI) was 1.02 µM (active), the GI50 (T47D) was 3.99 µM (inactive) and the GI50 (MOLT-4) was 585 nM (active). For the same compound, the GI50 (M14) was 3.15 µM (inactive), the GI50 (SF-268) was 1.53 µM (inactive) and the GI50 (SK-OV-3) was 1.44 µM (inactive). The GI50 (DMS-114) was 1.32 µM (inactive), the GI50 (EKVX) was 3.27 µM (inactive) and the GI50 (DU-145) was 4.06 µM (inactive). For the same compound, the GI50 (OVCAR-5) was 12.9 µM (inactive), the GI50 (SF-539) was 4.54 µM (inactive) and the GI50 (HCC 2998) was 2.67 µM (inactive). For the same compound, the GI50 (HL-60) was 689 nM (active), the GI50 (KM12) was 4.32 µM (inactive) and the GI50 (MDA-MB-435) was 5.68 µM (inactive). For the same compound, the GI50 (SNB-75) was 2.54 µM (inactive), the GI50 (HT-29) was 8.39 µM (inactive) and the GI50 (UACC-257) was 3.4 µM (inactive).

From ChEMBL document CHEMBL1201862, “PubChem BioAssay data set” (2004)
